# Assay results as given in ChEMBL document CHEMBL1201862, “PubChem BioAssay data set” (2004).
#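 Assay format: 96-well plates, 48-hour exposure. Abbreviation: GI50, concentration required for 50% inhibition of growth.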 Activity calls are given as the source filed them. Rule as the data show it: active = GI50 up to about 1.1 µM and inactive = higher.
# What was measured:
# Assay in all cases: NCI anticancer screen, dose series, 48 h
# 786-0 = tested on: 786-0
# A549 = tested on: A549
# ACHN = tested on: ACHN
# CAKI-1 = tested on: CAKI-1
# CCRF-CEM = tested on: CCRF-CEM
# COLO 205 = tested on: COLO 205
# DLD-1 = tested on: DLD-1
# DMS-114 = tested on: DMS-114
# DMS-273 = tested on: DMS-273
# EKVX = tested on: EKVX
# HCC 2998 = tested on: HCC 2998
# HCT-116 = tested on: HCT-116
# HCT-15 = tested on: HCT-15
# HL-60 = tested on: HL-60
# HOP-18 = tested on: HOP-18
# HOP-62 = tested on: HOP-62
# HOP-92 = tested on: HOP-92
# HT-29 = tested on: HT-29
# IGROV-1 = tested on: IGROV-1
# K562 = tested on: K562
# KM-20L2 = tested on: KM-20L2
# KM12 = tested on: KM12
# LOX IMVI = tested on: LOX IMVI
# LXFL 529 = tested on: LXFL 529
# M14 = tested on: M14
# M19-MEL = tested on: M19-MEL
# MOLT-4 = tested on: MOLT-4
# Malme-3M = tested on: Malme-3M
# NCI-H226 = tested on: NCI-H226
# NCI-H23 = tested on: NCI-H23
# NCI-H460 = tested on: NCI-H460
# NCI-H522 = tested on: NCI-H522
# OVCAR-3 = tested on: OVCAR-3
# OVCAR-4 = tested on: OVCAR-4
# OVCAR-5 = tested on: OVCAR-5
# OVCAR-8 = tested on: OVCAR-8
# RPMI-8226 = tested on: RPMI-8226
# RXF 631 = tested on: RXF 631
# SF-295 = tested on: SF-295
# SF-539 = tested on: SF-539
# SK-MEL-28 = tested on: SK-MEL-28
# SK-MEL-2 = tested on: SK-MEL-2
# SK-MEL-5 = tested on: SK-MEL-5
# SK-OV-3 = tested on: SK-OV-3
# SN12C = tested on: SN12C
# SNB-19 = tested on: SNB-19
# SNB-75 = tested on: SNB-75
# SNB-78 = tested on: SNB-78
# SR = tested on: SR
# SW-620 = tested on: SW-620
# TK-10 = tested on: TK-10
# U-251 = tested on: U-251
# UACC-257 = tested on: UACC-257
# UACC-62 = tested on: UACC-62
# UO-31 = tested on: UO-31
# XF498 = tested on: XF498
# A498 = tested on: A498
# RXF 393 = tested on: RXF 393
# SF-268 = tested on: SF-268
smiles,measurement,setting,value
COc1cc2cc[n+]3c4cc(OC)c(OC)cc4c(C)cc3c2cc1OC,GI50,786-0,> 100 µM (inactive)
same,GI50,A549,> 100 µM (inactive)
same,GI50,ACHN,> 100 µM (inactive)
same,GI50,CAKI-1,> 100 µM (inactive)
same,GI50,CCRF-CEM,> 100 µM (inactive)
same,GI50,COLO 205,89.1 µM (inactive)
same,GI50,DLD-1,> 100 µM (inactive)
same,GI50,DMS-114,> 100 µM (inactive)
same,GI50,DMS-273,> 100 µM (inactive)
same,GI50,EKVX,> 100 µM (inactive)
same,GI50,HCC 2998,61.8 µM (inactive)
same,GI50,HCT-116,> 100 µM (inactive)
same,GI50,HCT-15,> 100 µM
same,GI50,HL-60,> 100 µM (inactive)
same,GI50,HOP-18,> 100 µM (inactive)
same,GI50,HOP-62,> 100 µM (inactive)
same,GI50,HOP-92,> 100 µM (inactive)
same,GI50,HT-29,> 100 µM (inactive)
same,GI50,IGROV-1,> 100 µM (inactive)
same,GI50,K562,> 100 µM (inactive)
same,GI50,KM-20L2,> 100 µM (inactive)
same,GI50,KM12,> 100 µM (inactive)
same,GI50,LOX IMVI,> 100 µM (inactive)
same,GI50,LXFL 529,35.6 µM (inactive)
same,GI50,M14,> 100 µM (inactive)
same,GI50,M19-MEL,> 100 µM (inactive)
same,GI50,MOLT-4,> 100 µM (inactive)
same,GI50,Malme-3M,> 100 µM (inactive)
same,GI50,NCI-H226,> 100 µM (inactive)
same,GI50,NCI-H23,> 100 µM (inactive)
same,GI50,NCI-H460,> 100 µM (inactive)
same,GI50,NCI-H522,> 100 µM (inactive)
same,GI50,OVCAR-3,> 100 µM (inactive)
same,GI50,OVCAR-4,> 100 µM (inactive)
same,GI50,OVCAR-5,> 100 µM (inactive)
same,GI50,OVCAR-8,> 100 µM (inactive)
same,GI50,RPMI-8226,> 100 µM (inactive)
same,GI50,RXF 631,> 100 µM (inactive)
same,GI50,SF-295,> 100 µM (inactive)
same,GI50,SF-539,> 100 µM (inactive)
same,GI50,SK-MEL-28,> 100 µM (inactive)
same,GI50,SK-MEL-2,> 100 µM (inactive)
same,GI50,SK-MEL-5,> 100 µM (inactive)
same,GI50,SK-OV-3,> 100 µM (inactive)
same,GI50,SN12C,> 100 µM (inactive)
same,GI50,SNB-19,29.3 µM (inactive)
same,GI50,SNB-75,44.7 µM (inactive)
same,GI50,SNB-78,> 100 µM (inactive)
same,GI50,SR,> 100 µM (inactive)
same,GI50,SW-620,> 100 µM (inactive)
same,GI50,TK-10,> 100 µM (inactive)
same,GI50,U-251,70 µM (inactive)
same,GI50,UACC-257,88.7 µM (inactive)
same,GI50,UACC-62,> 100 µM (inactive)
same,GI50,UO-31,> 100 µM (inactive)
same,GI50,XF498,> 100 µM (inactive)
CC(=O)NC(Cc1ccccc1)C(=S)N1CCCC1 (centres undefined),GI50,786-0,> 100 µM (inactive)
same,GI50,A498,> 100 µM (inactive)
same,GI50,A549,> 100 µM (inactive)
same,GI50,ACHN,> 100 µM (inactive)
same,GI50,CAKI-1,> 100 µM (inactive)
same,GI50,CCRF-CEM,> 100 µM (inactive)
same,GI50,COLO 205,> 100 µM (inactive)
same,GI50,DLD-1,> 100 µM (inactive)
same,GI50,DMS-114,> 100 µM (inactive)
same,GI50,DMS-273,> 100 µM (inactive)
same,GI50,EKVX,> 100 µM (inactive)
same,GI50,HCC 2998,> 100 µM (inactive)
same,GI50,HCT-116,> 100 µM (inactive)
same,GI50,HCT-15,> 100 µM
same,GI50,HL-60,> 100 µM (inactive)
same,GI50,HOP-18,15.3 µM (inactive)
same,GI50,HOP-62,> 100 µM (inactive)
same,GI50,HOP-92,> 80.5 µM (inactive)
same,GI50,HT-29,> 100 µM (inactive)
same,GI50,IGROV-1,> 100 µM (inactive)
same,GI50,K562,> 100 µM (inactive)
same,GI50,KM-20L2,> 100 µM (inactive)
same,GI50,KM12,> 100 µM (inactive)
same,GI50,LOX IMVI,> 100 µM (inactive)
same,GI50,LXFL 529,> 100 µM (inactive)
same,GI50,M14,> 100 µM (inactive)
same,GI50,M19-MEL,> 100 µM (inactive)
same,GI50,MOLT-4,> 100 µM (inactive)
same,GI50,Malme-3M,> 100 µM (inactive)
same,GI50,NCI-H226,> 100 µM (inactive)
same,GI50,NCI-H23,> 100 µM (inactive)
same,GI50,NCI-H460,> 100 µM (inactive)
same,GI50,NCI-H522,> 100 µM (inactive)
same,GI50,OVCAR-3,> 100 µM (inactive)
same,GI50,OVCAR-4,> 100 µM (inactive)
same,GI50,OVCAR-5,> 100 µM (inactive)
same,GI50,OVCAR-8,> 100 µM (inactive)
same,GI50,RPMI-8226,> 100 µM (inactive)
same,GI50,RXF 393,> 100 µM (inactive)
same,GI50,RXF 631,> 100 µM (inactive)
same,GI50,SF-268,> 100 µM (inactive)
same,GI50,SF-295,> 100 µM (inactive)
same,GI50,SF-539,> 100 µM (inactive)
same,GI50,SK-MEL-28,> 100 µM (inactive)
same,GI50,SK-MEL-2,> 100 µM (inactive)
same,GI50,SK-MEL-5,> 100 µM (inactive)
same,GI50,SK-OV-3,> 100 µM (inactive)
same,GI50,SN12C,> 100 µM (inactive)
same,GI50,SNB-19,> 100 µM (inactive)
same,GI50,SNB-75,55.3 µM (inactive)
same,GI50,SNB-78,> 100 µM (inactive)
same,GI50,SW-620,> 100 µM (inactive)
same,GI50,TK-10,> 100 µM (inactive)
same,GI50,U-251,> 100 µM (inactive)
same,GI50,UACC-257,> 100 µM (inactive)
same,GI50,UACC-62,> 100 µM (inactive)
same,GI50,UO-31,> 100 µM (inactive)
same,GI50,XF498,> 100 µM (inactive)
